The values that follow come from patent US20100209489A1, “Formulations of desvenlafaxine” (Supernus Pharmaceuticals, Inc., priority 2009, published 2010).

For data set [1] the following is noted: cited from earlier work.
The conditions of data set [2]: DI water, room temperature overnight. The procedure:
All samples were prepared with DI water, pH 5.5. Controls were prepared similarly without the use of modulators. All test samples were mixed overnight at room temperature. The samples were then filtered and analyzed using HPLC-UV method.

Where two headings read alike, the source gives them in different places.

On to `CN(C)CC(c1ccc(O)cc1)C1(O)CCCCC1` (racemic) [desvenlafaxine], for which the “adverse events and discontinuations” value in data set [1] (at higher doses (above 50 mg/day)) is “more frequent”. Moreover, in data set [1] (dose of 50-400 mg/day), the “efficacy in clinical studies” value is listed as “effective”. In addition, in data set [1] (doses higher than 50 mg/day), the “additional benefit in clinical studies” value is “no additional benefit”.
As to `CN(C)CC(c1ccc(O)cc1)C1(O)CCCCC1.Cl.O` (single isomer, unassigned; (-)) [(−)-O-desmethyl venlafaxine HCl monohydrate], the “API Solubility” value in data set [2] (control without modulators, sample pH 5.2-5.5) came to 611 mg/mL; in data set [2] (with Alginic acid, sample pH 2.4-2.7) it was 568 mg/mL; in data set [2] (with Ascorbic acid, sample pH 2.7-3.0) it was 597 mg/mL; in data set [2] (with Beta cyclodextrin, sample pH 5.2-5.5), 502 mg/mL; in data set [2] (with Carbopol 941, sample pH 3.2-3.5), 587 mg/mL; in data set [2] (with Citric acid, sample pH 2.1-2.4) it was 612 mg/mL. The “API Solubility” value was determined as 547 mg/mL in data set [2] (with Eudragit L100, sample pH 3.2-3.5); 639 mg/mL in data set [2] (with Fumaric acid, sample pH <1.8); 521 mg/mL in data set [2] (with Gelucire 44/14, sample pH 5.2-5.5); 572 mg/mL in data set [2] (with HPMCP, sample pH 2.7-3.0); 589 mg/mL in data set [2] (with Hydroxypropyl beta cyclodextrin, sample pH 5.5-5.7); 536 mg/mL in data set [2] (with Klucel LF, sample pH 5.5). Further, the “API Solubility” value was 610 mg/mL in data set [2] (with Kollidone 25, sample pH 5.2-5.5); 661 mg/mL in data set [2] (with Kollidone/Tartaric acid, sample pH 2.1-2.4); 665 mg/mL in data set [2] (with Lactose, sample pH 5.2-5.5); 677 mg/mL in data set [2] (with Malic acid, sample pH 1.5-2.0); 432 mg/mL in data set [2] (with Maltrin M150/Xylitol/Sodium lauryl sulfate/Gelucire 44/14, sample pH 5.2-5.5); 565 mg/mL in data set [2] (with Maltrin M150, sample pH 5.2-5.5). For the same molecule, the “API Solubility” value was found to be 521 mg/mL in data set [2] (with Mannitol/Sorbitol/Tartaric acid/Eudragit L100, sample pH <1.8); 613 mg/mL in data set [2] (with Mannitol, sample pH 5.2-5.5); 504 mg/mL in data set [2] (with Methocel E5, sample pH 5.7); 561 mg/mL in data set [2] (with Methylcyclodextrin, sample pH 5.5); 602 mg/mL in data set [2] (with PEG 3350, sample pH 5.2-5.5); 569 mg/mL in data set [2] (with PEG 8000, sample pH 5.2-5.5). Moreover, the “API Solubility” value in data set [2] (with Poloxamer 188, sample pH 5.2-5.5) is on record as 552 mg/mL; in data set [2] (with Sodium Docusate, sample pH 6.3-6.5) it was 539 mg/mL; in data set [2] (with Sodium lauryl sulfate, sample pH 6.3-6.6), 524 mg/mL; in data set [2] (with Sorbitol, sample pH 5.2-5.5) it was 549 mg/mL; in data set [2] (with Tartaric acid, sample pH 1.5-2.0) it was 719 mg/mL; in data set [2] (with Triethyl citrate, sample pH 5.2-5.5) it was 643 mg/mL. The “API Solubility” value in data set [2] (with Tween 80, sample pH 5.2-5.5) turned out to be 544 mg/mL; in data set [2] (with Vitamin E TPGS, sample pH 5.2-5.5) it was 535 mg/mL; in data set [2] (with Xylitol, sample pH 5.2-5.5), 547 mg/mL. In addition, the solubility result reads like this: (at about pH 6.0) “less than 100 mg/mL”; (higher pH, close to the physiological pH) “less than 1 mg/mL”; (low pH, for example pH 1.0) “a few hundred”.
